Laboratory results taken from US20090163577A1, “METHODS AND COMPOSITIONS FOR ANTAGONIZING ANTI-APOPTOTIC Bcl-2-FAMILY PROTEINS” (Burnham Institute for Medical Research, priority 2007, published 2009).
Entries after “also recorded” stand apart in the source; their conditions may differ. Like-named read-outs stand apart in the source and are kept apart here.

What was measured:
Jurkat cells [1] = test system: Jurkat cells
Bfl-1 = biological target: T1, Bfl-1 (Homo sapiens, UniProt Q16548); test: FPA competitive FITC-Bid BH3 peptide displacement, Bfl-1 (also HTS); settings: for activity in BH3 displacement assays: FPA, FITC-Bid BH3 peptide, compared with GA
T1 sequence (Q16548 1-155 limits assumed): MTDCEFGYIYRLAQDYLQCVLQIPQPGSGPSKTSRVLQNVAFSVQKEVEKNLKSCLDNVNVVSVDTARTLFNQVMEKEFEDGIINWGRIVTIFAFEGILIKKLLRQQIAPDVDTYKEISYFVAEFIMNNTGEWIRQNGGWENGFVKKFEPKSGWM

Jurkat cells [2] = test: Cytotoxicity of GA analogs, live cells by Annexin V/PI, Jurkat; settings: 20 hrs, 0-50 μM
Mcl-1 = biological target: T2, Mcl-1 (Homo sapiens, UniProt Q07820); test: FPA competitive FITC-Bid BH3 peptide displacement, Mcl-1; type: binding; settings: 100 nM GST-Mcl-1, 5 nM FITC-Bid BH3 peptide, read-out: IC50 (μM) for Gambogic acid
T2 construct: lacking their C-terminal transmembrane domains (last 20 amino-acids) (“ΔTM”); made in house; host or cells: E. coli XL-1 Blue (pGEX 4T-1)
T2 sequence (Q07820 1-330 limits assumed): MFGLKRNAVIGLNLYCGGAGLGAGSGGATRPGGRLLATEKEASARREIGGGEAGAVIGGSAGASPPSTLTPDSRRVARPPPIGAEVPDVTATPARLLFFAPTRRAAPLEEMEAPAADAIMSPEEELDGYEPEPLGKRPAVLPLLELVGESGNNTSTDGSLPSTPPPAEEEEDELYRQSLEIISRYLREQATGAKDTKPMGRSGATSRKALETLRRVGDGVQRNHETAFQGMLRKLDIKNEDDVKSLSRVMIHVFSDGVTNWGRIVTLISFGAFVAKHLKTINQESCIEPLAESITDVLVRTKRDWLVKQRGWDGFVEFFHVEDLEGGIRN
Description: (§1) (A) Structure of gambogic acid.
(§2) Fluorescence Polarization Assays (FPAs).
(§3) Competitive Peptide Displacement Assays.

tumor cell lines = tumor cell lines in culture; cited from earlier work
[3] = test system: Jurkat T-cell acute lymphoblastic leukemia; test: Apoptosis, Annexin V/PI staining, Jurkat; type: cell-based; settings: Homo sapiens, within 20-24 hrs, read-out: concentration required to induce apoptosis of 50% of the cells
Protocol: (§4) Gambogic acid was used to treat HL-60 (black symbols) or Jurkat (white symbols) cells at concentrations of 0, 0.1, 0.2, 0.5, 2, 5 μM (from left to right).
(§5) Cell Culture, Transfection, and Apoptosis Assays.
(§6) GA overcomes cytoprotection of Bcl-2 in leukemia cells. GA has cytotoxic activity against various tumor cell lines in culture and induces apoptosis (Zhang et al., Bioorg. Med. Chem. 12:309-317, 2004; Zhao et al., Biol. Pharm. Bull. 27:998-1003, 2004). We confirmed the apoptosis-inducing activity of GA using Jurkat T-cell acute lymphoblastic leukemia and HL-60 acute promyelomonocytic leukemia cell lines, using Annexin V/propidium iodide (PI) staining, counting Annexin V+/PT− cells as apoptotic (FIG. 3). The concentration of GA required to induce apoptosis of 50% of the cells within 20-24 hrs was ˜0.2 μM and ˜0.5 μM for Jurkat and HL-60, respectively.

[4] = test system: Bcl-2 over-expressing HL-60 cells; test: Cytotoxicity in NEO-control vs Bcl-2 over-expressing HL-60 cells; type: cell-based
Description: Data are representative of at least 3 independent experiments.
as §5
We tested the cytotoxic activity of GA against HL-60 cells that had been stably transfected with NEO-control or Bcl-2-expression plasmids (Konopleva et al., Blood 95:3929-3938, 2000).

[5] = test system: prostate cancer cell line PPC1; test: Pro-caspase-3 processing, immunoblot, PPC1; type: cell-based; settings: PPC1, 20 hrs, 0 to 10 μM
Protocol: To determine GA's affect on processing of pro-caspase-3, a marker of apoptosis, cells of the prostate cancer cell line PPC1 were treated with gambogic acid at concentrations from 0 to 10 μM. After 20 hrs, the cells were collected and the cell lysates were analyzed by SDS-PAGE/immunoblotting using anti-caspase 3 antibody. GA induced clearly detectable proteolytic processing of pro-caspase-3 at concentrations≧2 μM.

[6] = rats; cited from earlier work
GST-Bcl-XL = biological target: T3, GST-Bcl-XL (Homo sapiens, UniProt Q07817); test: TR-FRET assay, FITC-Bad BH3 peptide binding to GST-Bcl-XL; settings: 10 nM GST-Bcl-XL, 10 nM FITC-Bad BH3 peptide, read-out: apparent IC50, inhibition of FITC-Bad BH3 peptide binding
T3 construct: lacking their C-terminal transmembrane domains (last 20 amino-acids) (“ΔTM”); made in house; host or cells: E. coli XL-1 Blue (pGEX 4T-1)
T3 sequence (Q07817 1-213 limits assumed): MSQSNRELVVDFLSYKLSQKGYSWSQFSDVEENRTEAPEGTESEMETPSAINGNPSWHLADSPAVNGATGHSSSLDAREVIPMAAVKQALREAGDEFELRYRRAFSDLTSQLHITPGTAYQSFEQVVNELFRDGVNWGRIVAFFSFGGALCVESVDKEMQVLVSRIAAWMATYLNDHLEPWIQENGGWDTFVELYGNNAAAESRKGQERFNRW
Protocol: (A) Binding of GST-Bcl-XL to FITC-BH3 peptide was assayed by TR-FRET. The final reaction mixtures contain 10 nM of FITC-Bad BH3 peptide, 2 nM of anti-GST-Turbium, and various concentrations of GST-Bcl-XL proteins in PBS buffer containing 0.005% Tween 20. (B) Analysis of GA competition with BH3 peptide for Bcl-XL binding by TR-FRET. Reaction mixtures of final 20 μl volume contain 2 μl of various concentrations of GA with 10 nM FITC-Bad BH3 peptide, 2 nM anti-GST-Terbium, and 10 nM GST-Bcl-XL protein in PBS buffer containing 0.005% Tween 20. The mixtures are incubated for 30 min at room temperature. TR-FRET signals were measured using excitation at 330 nm, emission for FITC signal at 490 nm, and emission for terbium signal at 520 nm. Data are presented as 520 nm/490 nm ratio (mean±std dev; n=3).
Time-Resolved-Fluorescence Resonance Energy Transfer (TR-FRET) Assays. For TR-FRET assays, GST-Bcl-XL and anti-GST-terbium (Invitrogen) were mixed together with the FITC-Bad BH3 peptide in PBS containing 0.005% tween 20 in 96 well plates in a total volume of 20 μl per well. […] TR-FRET signals were measured with a SpectraMax M5 plate reader (Molecular Devices) using the following settings: excitation at 330 nm, emission for FITC signal at 490 nm, and emission for terbium signal at 520 nm. […]

Hsp70 = Hsp70 (Homo sapiens, UniProt P0DMV8); test: FPA, FITC-ATP binding to Hsp70; settings: not shown
Chain of Hsp70 (P0DMV8 whole entry): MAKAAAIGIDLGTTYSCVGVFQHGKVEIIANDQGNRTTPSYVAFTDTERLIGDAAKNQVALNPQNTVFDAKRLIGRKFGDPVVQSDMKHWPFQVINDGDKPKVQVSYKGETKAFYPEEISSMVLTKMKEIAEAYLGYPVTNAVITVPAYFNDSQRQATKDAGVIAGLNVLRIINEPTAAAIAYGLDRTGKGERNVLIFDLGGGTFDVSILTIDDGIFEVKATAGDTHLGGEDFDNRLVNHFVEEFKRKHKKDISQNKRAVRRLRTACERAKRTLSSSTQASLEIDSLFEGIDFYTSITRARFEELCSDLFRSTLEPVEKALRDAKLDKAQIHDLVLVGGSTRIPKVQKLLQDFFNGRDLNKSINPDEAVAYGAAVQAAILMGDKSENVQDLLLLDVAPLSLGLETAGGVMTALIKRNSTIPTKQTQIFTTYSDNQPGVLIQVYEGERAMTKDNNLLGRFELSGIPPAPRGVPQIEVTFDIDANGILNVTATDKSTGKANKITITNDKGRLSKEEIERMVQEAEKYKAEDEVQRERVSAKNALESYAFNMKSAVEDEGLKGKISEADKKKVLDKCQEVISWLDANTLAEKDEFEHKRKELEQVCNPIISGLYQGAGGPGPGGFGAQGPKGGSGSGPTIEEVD

Bcl-XL = biological target: T4, Bcl-XL (Homo sapiens, UniProt Q07817); test: FPA competitive FITC-Bid BH3 peptide displacement, Bcl-XL; type: binding; settings: 100 nM GST-Bcl-XL, 5 nM FITC-Bid BH3 peptide, read-out: IC50 (μM) for Gambogic acid
T4 construct: lacking their C-terminal transmembrane domains (last 20 amino-acids) (“ΔTM”); made in house; host or cells: E. coli XL-1 Blue (pGEX 4T-1)
T4 sequence (Q07817 1-213 limits assumed): as the sequence (Q07817 1-213 limits assumed) above
Description: as §1, §2, §3

BIR3 of XIAP = test: FPA, rhodamine-SMAC peptide binding to BIR3 of XIAP; settings: not shown
Bcl-2 = biological target: T5, Bcl-2 (Homo sapiens, UniProt P10415); test: FPA competitive FITC-Bid BH3 peptide displacement, Bcl-2; type: binding
T5 construct: lacking their C-terminal transmembrane domains (last 20 amino-acids) (“ΔTM”); made in house; host or cells: E. coli XL-1 Blue (pGEX 4T-1)
T5 sequence (P10415 1-219 limits assumed): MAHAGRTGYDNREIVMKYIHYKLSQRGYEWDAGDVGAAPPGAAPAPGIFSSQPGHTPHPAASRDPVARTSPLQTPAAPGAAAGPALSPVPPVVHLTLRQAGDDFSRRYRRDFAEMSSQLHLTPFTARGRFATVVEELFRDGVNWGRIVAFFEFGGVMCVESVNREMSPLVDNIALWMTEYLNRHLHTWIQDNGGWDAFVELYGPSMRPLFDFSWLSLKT
Description: as §1, §2, §3

bax+/+ bak+/+ MEFs = test: Cytotoxicity in wild-type MEFs; type: cell-based, mouse; settings: 20 hrs
Description: as §5
GA-induced cytotoxicity is only partly Bcl-2-dependent. Anti-apoptotic Bcl-2-family proteins suppress mitochondria-initiated cell death by inhibiting pro-apoptotic Bcl-2 members Bax and Bak (Kroemer and Reed, Nat. Med. 6:513-519, 2000; Reed, Am. J. Pathol. 157:1415-1430, 2000; Li et al., Cell 116 (2 Suppl.):S57-59, 2 p. following S59). Consequently, when cells are genetically engineered to lack Bax and Bak, then Bcl-2 and related cytoprotective proteins no long display an anti-apoptotic phenotype (Wei et al., Science 292:727-730, 2001). Cells doubly deficient in Bax and Bak therefore provide a context for assessing the mechanism of GA-induced toxicity. GA killed transformed mouse fibroblasts (MEFs) generated from bax+/+ bak+/+ embryos in a concentration-dependent manner (FIG. 6A). […] We conclude therefore that GA induces cytotoxicity through mechanisms that are only partly dependent on Bcl-2-family proteins.

bax−/− bak−/− MEFs = test: Cytotoxicity in bax-/- bak-/- MEFs; type: cell-based, mouse; settings: 20 hrs; listed as GA
[7] = test system: Bax, Bcl-2, transferrin receptor; settings: cited from earlier work
[8] = test system: HL-60 acute promyelomonocytic leukemia; test: Apoptosis, Annexin V/PI staining, HL-60; type: cell-based; settings: Homo sapiens, HL-60, within 20-24 hrs, read-out: concentration required to induce apoptosis of 50% of the cells
Protocol: as §4, §5, §6

Bcl-W = biological target: T6, Bcl-W (Homo sapiens, UniProt Q92843); test: FPA competitive FITC-Bid BH3 peptide displacement, Bcl-W; type: binding; settings: 100 nM GST-Bcl-W, 5 nM FITC-Bid BH3 peptide, read-out: IC50 (μM) for Gambogic acid
T6 construct: lacking their C-terminal transmembrane domains (last 20 amino-acids) (“ΔTM”); made in house; host or cells: E. coli XL-1 Blue (pGEX 4T-1)
T6 sequence (Q92843 1-173 limits assumed): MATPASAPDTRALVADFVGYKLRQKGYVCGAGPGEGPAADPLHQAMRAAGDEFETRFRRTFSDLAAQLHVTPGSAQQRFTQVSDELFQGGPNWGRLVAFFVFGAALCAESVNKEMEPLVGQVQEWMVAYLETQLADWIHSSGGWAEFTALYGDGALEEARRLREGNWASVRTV
Description: as §1, §2, §3

dividing cells = settings: cited from earlier work
[9] = test system: anti-apoptotic Bcl-2-family proteins (Bcl-2, Bcl-XL, Bfl-1, Bcl-W, Mcl-1); test: tBid-induced SMAC release from isolated HeLa mitochondria; type: biochemical, human
Protocol: Mitochondria Purification and Protein Release Assays. HeLa cells were pelleted by centrifugation, and then washed once in HM buffer (10 mM HEPES, pH 7.4, 250 mM mannitol, 10 mM KCl, 5 mM MgCl2, 1 mM EGTA), containing 1 mM PMSF and a mixture of protease inhibitors (Roche Molecular Biochemicals). The cell pellet was then homogenized in HM buffer by 50 strokes of a dounce homogenizer, using a B-type pestle. The homogenate was centrifuged twice at 600 g for 5 min to remove nuclei and debris. The resulting supernatant was centrifuged at 10,000 g for 10 min, and the resulting mitochondria-containing pellet was washed twice with the HM buffer.
For mitochondrial protein release assays, 10 μl of mitochondria (50 μg) were added into a final volume of 50 μl HM buffer containing gambogic acid, tBid or tBid pre-incubated with gambogic acid or Bcl-2 family proteins at 30° C. for 15 min. The reactions were further incubated at 30° C. for 40-60 min, then mitochondria were pelleted by centrifugation and the supernatants were collected, boiled in Laemmli sample buffer, and analyzed by SDS-PAGE/immunoblotting using anti-SMAC antibody (Zhai et al., J. Biol. Chem. 280:15815-15824, 2005).
GA neutralizes activity of Bcl-2-family proteins in vitro. An active, N-terminally truncated form of the pro-apoptotic BH3-containing protein Bid (tBid) induces release of apoptogenic proteins such as SMAC from isolated mitochondria in vitro (Becattini et al., Chem. Biol. 11:1107-1117, 2004; Zhai et al., J. Biol. Chem. 280:15815-15824, 2005; Luciano et al., J. Biol. Chem. 280:15825-15835, 2005). […] Samples were centrifuged to generate supernatants that were analyzed by SDS-PAGE/immunoblotting using anti-SMAC antibody. […] Complete restoration was typically achieved with 5 μM GA, representing an approximately 10:1 molar excess of GA relative to anti-apoptotic Bcl-2-family proteins.

Bcl-B = biological target: T7, Bcl-B (Homo sapiens, UniProt Q9HD36); test: FPA competitive FITC-Bid BH3 peptide displacement, Bcl-B; type: binding; settings: 100 nM GST-Bcl-B, 5 nM FITC-Bid BH3 peptide, read-out: IC50 (μM) for Gambogic acid
T7 construct: lacking their C-terminal transmembrane domains (last 20 amino-acids) (“ΔTM”); made in house; host or cells: E. coli XL-1 Blue (pGEX 4T-1)
T7 sequence (Q9HD36 1-184 limits assumed): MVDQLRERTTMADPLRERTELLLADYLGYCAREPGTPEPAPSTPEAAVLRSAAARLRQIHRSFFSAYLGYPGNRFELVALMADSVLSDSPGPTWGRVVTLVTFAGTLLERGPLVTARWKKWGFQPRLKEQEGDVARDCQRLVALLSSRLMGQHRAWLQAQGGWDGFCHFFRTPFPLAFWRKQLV
Description: as §1, §2, §3

CC(C)=CCC[C@]1(C)C=Cc2c(O)c3c(c(CC=C(C)C)c2O1)O[C@]12C(C[C@@H]4CC1C(C)(C)O[C@@]2(C/C=C(/C)C(=O)O)C4O)C3=O (stereo partly shown) [tetrahydro-GA]
cytotoxic potency relative to GA (fold less potent) (Jurkat cells [1]): ~50 fold | activity in BH3 displacement assays (Bfl-1): greatly reduced activity

CC(C)=CCCC1(C)C=Cc2c(O)c3c(c(CC=C(C)C)c2O1)OC12C(=CCCC1C(C)(C)O[C@@]2(C/C=C(\C)C(=O)O)C(=O)O)C3=O (stereo partly shown) [Garcinolic acid]
cytotoxic activity against cultured leukemia cells (Jurkat cells [2]): non-toxic | activity in BH3 displacement assays (Bfl-1): greatly reduced activity

CC(C)=CCC[C@]1(C)C=Cc2c(O)c3c(c(CC=C(C)C)c2O1)O[C@]12C(=C[C@@H]4C[C@H]1C(C)(C)O[C@@]2(C/C=C(/C)C(=O)O)C4=O)C3=O [Gambogic acid]
IC50 (Mcl-1): 0.79 µM | concentration required for killing 50% of cells (LD50) (tumor cell lines): ~1 µM | EC50 [3]: ~200 nM | effect of Bcl-2 over-expression on cytotoxicity [4]: reduced the sensitivity | concentration giving clearly detectable proteolytic processing of pro-caspase-3 [5]: ≥ 2 µM | tolerability [6]: well tolerated | IC50 (GST-Bcl-XL): 1500 nM | inhibition of FITC-ATP binding (Hsp70): did not inhibit | IC50 (Bcl-XL): 1.47 µM | inhibition of rhodamine-SMAC peptide binding (BIR3 of XIAP): did not inhibit | IC50 (Bcl-2; 100 nM GST-Bcl-2, 5 nM FITC-Bid BH3 peptide, read-out: IC50 (μM) for Gambogic acid): 1.21 µM | sensitivity to displacement of FITC-BH3 peptide among the six proteins (Bcl-2; FIG. 1): the least | killing of wild-type MEFs (bax+/+ bak+/+ MEFs): killed | killing of bax−/− bak−/− MEFs (bax−/− bak−/− MEFs): killed; also recorded: retained cytotoxic activity | Bax protein levels [7]: increases in Bax protein levels | Bcl-2 protein levels [7]: reductions in Bcl-2 protein levels | transferrin receptor internalization [7]: suppressing transferring receptor internalization | EC50 [8]: ~500 nM | IC50 (Bcl-W): 2.02 µM | cell cycle arrest (dividing cells): induces G2/M-phase arrest | concentration for complete restoration of tBid-induced SMAC release ([9]; 20 ng tBid, 2 μg Bcl-2-family protein, 50 μg HeLa mitochondria): 5 µM | restoration of tBid-induced SMAC release ([9]; recombinant Bcl-2, Bcl-XL, Bfl-1, Bcl-W or Mcl-1 added, listed as GA): neutralizes their suppressive effects on mitochondria in a concentration-dependent manner; also recorded: restored tBid-induced SMAC release in a concentration-dependent manner | tBid-induced release of SMAC ([9]; recombinant Bcl-2-family proteins not added): enhanced | IC50 (Bfl-1): 1060 nM | suppression of BH3 peptide binding in HTS (Bfl-1; library screen, 10 μM compound): ≥ 50% | IC50 (Bcl-B): 0.66 µM

CN[C@@H]1C[C@H]2O[C@@](C)([C@@H]1OC)n1c3ccccc3c3c4c(c5c6ccccc6n2c5c31)C(=O)NC4 [staurosporine, reference compound]
effect of Bcl-2 over-expression on cytotoxicity ([4]; HL-60 Bcl-2 vs NEO-control, 8 hrs): block to apoptosis
